Values after ≈ are worked out from the molar mass of the structure shown.
Key:
A. baumannii AR-0313 = experiment: MIC, broth microdilution (CLSI); type: cell-based; settings: Acinetobacter baumannii, AR0313; A. baumannii AR-0313 clinical isolate; † = dose-independent trailing growth
Method: (§1) II. Materials and Methods for Biological Experiments
(§2) S. aureus ATCC 29213 and E. coli MG1655 were obtained from the American Type Culture Collection (ATCC). E. coli BW25113 and E. coli JW5503 were obtained from the Keio Collection. AR-bank strains were obtained from the Centers for Disease Control and Prevention and FDA Antibiotic Resistance Isolate Bank.
(§3) Antimicrobial susceptibility tests
(§4) Susceptibility testing was performed in biological triplicate, unless noted otherwise, using the micro-dilution broth method as outlined by the Clinical and Laboratory Standards Institute. Bacteria were cultured with cation-adjusted Mueller Hinton broth (Sigma Aldrich, catalogue number: 90922). […]
(§5) Error bars represent the standard error of the mean of three biological replicates. All compounds evaluated in biological assays were ≥95% pure.

K. pneumoniae AR-0113 = experiment: MIC, broth microdilution (CLSI); type: cell-based; settings: Klebsiella pneumoniae, AR0113; K. pneumoniae AR-0113 clinical isolate
Method: as §1, §2, §3, §4, §5

A. baumannii AR-0299 = experiment: MIC, broth microdilution (CLSI); type: cell-based; settings: Acinetobacter baumannii, AR0299; A. baumannii AR-0299 clinical isolate; † = dose-independent trailing growth
Method: as §1, §2, §3, §4
(§6) NH3: m/z 391.2 → 171.0. Fabimycin: m/z 405.3 → 145.3. Power analysis was not used to determine the number of replicates. Error bars represent the standard error of the mean of three biological replicates. All compounds evaluated in biological assays were ≥95% pure.

K. pneumoniae AR-0560 = experiment: MIC, broth microdilution (CLSI); type: cell-based; settings: Klebsiella pneumoniae, AR0560; K. pneumoniae AR-0560 clinical isolate
Method: as §1, §2, §3, §4, §6

K. pneumoniae BAA-2472 = experiment: MIC, broth microdilution (CLSI); type: cell-based; settings: Klebsiella pneumoniae, BAA2472
Method: as §1, §2, §3, §4, §6

E. coli AR-0085 = experiment: MIC, broth microdilution (CLSI); type: cell-based; settings: Escherichia coli, AR0085; E. coli AR-0085 clinical isolate
Method: as §1, §2, §3, §4, §6

A. baumannii AR-0033 = experiment: MIC, broth microdilution (CLSI); type: cell-based; settings: Acinetobacter baumannii, AR0033; A. baumannii AR-0033 clinical isolate; † = dose-independent trailing growth
Method: as §1, §2, §3, §4, §6

E. coli AR-0048 = experiment: MIC, broth microdilution (CLSI); type: cell-based; settings: Escherichia coli, AR0048; E. coli AR-0048 clinical isolate
Method: as §1, §2, §3, §4, §6

S. aureus ATCC 29213 = experiment: MIC, broth microdilution (CLSI); type: cell-based; settings: Staphylococcus aureus, ATCC29213; S. aureus 29213
Method: as §1, §2, §3, §4, §6

A. baumannii AR-0273 = experiment: MIC, broth microdilution (CLSI); type: cell-based; settings: Acinetobacter baumannii, AR0273; A. baumannii AR-0273 clinical isolate
Method: as §1, §2, §3, §4, §6

K. pneumoniae AR-0066 = experiment: MIC, broth microdilution (CLSI); type: cell-based; settings: Klebsiella pneumoniae, AR0066; K. pneumoniae AR-0066 clinical isolate
Method: as §1, §2, §3, §4, §6

E. coli MG1655 = experiment: MIC, broth microdilution (CLSI); type: cell-based; settings: Escherichia coli
Method: as §1, §2, §3, §4, §6

E. coli ΔtolC (JW5503) = experiment: MIC, broth microdilution (CLSI); type: cell-based, Escherichia coli
Method: as §1, §2, §3, §4, §6

A. baumannii FabI = A. baumannii FabI (Acinetobacter baumannii, UniProt D0CAD5); experiment: In vitro FabI enzymatic inhibition assay; type: biochemical; settings: AbFabI; Morrison's quadratic fit; 5 nM enzyme; read-out: Ki app
Sequence of A. baumannii FabI (D0CAD5 entry or part of it): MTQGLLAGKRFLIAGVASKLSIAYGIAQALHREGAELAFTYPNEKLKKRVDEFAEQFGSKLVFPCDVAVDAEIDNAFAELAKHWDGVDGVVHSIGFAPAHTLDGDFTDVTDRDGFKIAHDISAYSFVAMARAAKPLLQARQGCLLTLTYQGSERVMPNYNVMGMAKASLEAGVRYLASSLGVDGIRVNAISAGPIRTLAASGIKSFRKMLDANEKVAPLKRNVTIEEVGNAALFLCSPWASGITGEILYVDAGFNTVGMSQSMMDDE
Method: (§7) supplemented with 100 µg/mL ampicillin at 37°C until OD600 reached 0.6-0.7. The cells were induced with 1mM IPTG and incubated for 20 hours at 18°C and spun down at 8000 rpm for 15 minutes. Cell pellet was resuspended in the lysis buffer (50 mM Tris-HCl pH 8.0, 500 mM Na Cl, 20 mM imidazole, 10% glycerol, 0.5 mM TCEP, protease inhibitor and Lysonase) and passed through microfluidizer followed by centrifugation and filtration to remove cell debris. The clarified lysate was supplemented with 20 mM imidazole and passed over a HisTrap column (Cytiva) pre-equilibrated with the wash buffer (50 mM Tris-HCl pH 8.0, 500 mM NaCl, 20 mM imidazole, 10% glycerol, 0.5 mM TCEP). The column was washed with the wash buffer and eluted over a 20-500 mM imidazole gradient. The appropriate fractions were pooled, and the histidine tag was removed by TEV cleavage. The protein mixture was passed over a HisTrap column to separate the cleaved protein from the uncleaved ones. The cleaved protein was pooled and passed over an S75 size exclusion column (GE LifeSciences) pre-equilibrated with 50 mM Tris-HCl pH 8.0, 500 mM NaCl, 0.5 mM TCEP and 10% glycerol. Fractions containing pure protein were pooled, concentrated at 10 mg/mL and stored at -80°C. […]
(§8) In vitro FabI enzymatic inhibition assay
(§9) Recombinant E. coli and A. baummani FabI enzymes were used in a continuous NADH absorbance assay (20 µL in 384w format). Compounds and the Crotonyl-CoA substrate (Sigma–Aldrich 28007) were dispensed into a plate (GeinerBio-One 781101). The reaction was initiated by the addition of a reaction master mix solution containing enzyme and NADH (Sigma–Aldrich N8129) suspended in reaction buffer (50 mM HEPES pH 7.4, 150 mM NaCl, 1 mM EDTA, 0.01 mg/mL BSA, 0.01% Tween). Final concentrations were 5 nM enzyme, 150 μM Crotonyl-CoA, 380 μM NADH, 0.05% DMSO in 1x reaction buffer. After shaking for 5 seconds the reaction was monitored at NADH absorbance (340nm, 25°C) using a Molecular Devices SpectraMax M5 microplate reader. The linear portion of the progress curve was fit using plate-reader software. Percentage activity was calculated relative to DMSO only and no-substrate controls in each plate and the data were fit to Morrison’s quadratic using Graphpad Prism 9.3 to obtain apparent inhibition constant (Ki app) values. […]
(§10) 480 Real-Time PCR System as a function of a temperature ramp (25-95°C; 0.1°/s) and the Tm was calculated using the […]

E. coli FabI = molecular target: T1, E. coli FabI (Escherichia coli, UniProt P0AEK4); experiment: In vitro FabI enzymatic inhibition assay; type: biochemical; settings: for Ki: EcFabI, Morrison's quadratic fit, 5 nM enzyme, read-out: Ki app
T1 construct: His(6) with TEV site (cleaved yes); made in house; host or cells: E. coli BL21(DE3)
T1 sequence (P0AEK4 whole entry): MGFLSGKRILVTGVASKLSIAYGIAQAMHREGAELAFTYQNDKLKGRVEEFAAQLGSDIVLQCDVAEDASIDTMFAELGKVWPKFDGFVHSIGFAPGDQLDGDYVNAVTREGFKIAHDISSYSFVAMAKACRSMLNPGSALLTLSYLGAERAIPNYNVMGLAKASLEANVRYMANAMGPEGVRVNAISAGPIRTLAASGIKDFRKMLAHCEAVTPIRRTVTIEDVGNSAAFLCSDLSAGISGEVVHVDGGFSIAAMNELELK
Method: as §7, §8, §9, §10

SMILES | MIC (A. baumannii AR-0313) [µg/mL] | MIC (K. pneumoniae AR-0113) [µg/mL] | MIC (A. baumannii AR-0299) [µg/mL] | MIC (K. pneumoniae AR-0560) [µg/mL] | MIC (K. pneumoniae BAA-2472) [µg/mL] | MIC (E. coli AR-0085) [µg/mL] | MIC (A. baumannii AR-0033) [µg/mL] | MIC (E. coli AR-0048) [µg/mL] | MIC (S. aureus ATCC 29213) [µg/mL] | MIC (A. baumannii AR-0273) [µg/mL] | MIC (K. pneumoniae AR-0066) [µg/mL] | MIC (E. coli MG1655) [µg/mL] | MIC (E. coli ΔtolC (JW5503); Escherichia coli) [µg/mL] | Ki (A. baumannii FabI) [nM] | Ki (E. coli FabI) [nM] | MIC (E. coli ΔtolC (JW5503); E. coli ΔtolC = JW5503, efflux-deficient) [µg/mL] | difference in potency between fabimycin and (R)-7 against purified E. coli FabI (E. coli FabI; fabimycin relative to (R)-7) [fold]
Cc1c(CN(C)C(=O)/C=C/c2cnc3c(c2)CC[C@@H](N)C(=O)N3)oc2ccccc12 [(R)-7] | > 128 | > 128 | > 128 | > 128 | > 128 | 128 (≈ 316 µM) | > 128 | 128 (≈ 316 µM) | 0.125 (≈ 0.309 µM) | > 128 | > 128 | 64 (≈ 158 µM) | 0.5 (≈ 1.24 µM) | 109 ± 14 | 38 ± 4 | – | –
Cc1c(CN(C)C(=O)/C=C/c2cnc3c(c2)CCCC(=O)N3)oc2ccccc12 [compound 10] | 16 (≈ 41.1 µM) | 32 (≈ 82.2 µM) | 16 (≈ 41.1 µM) | > 32 | 16 (≈ 41.1 µM) | 8 (≈ 20.5 µM) | 16 (≈ 41.1 µM) | 8 (≈ 20.5 µM) | 0.002 (≈ 0.00514 µM) | 16 (≈ 41.1 µM) | 32 (≈ 82.2 µM) | 8 (≈ 20.5 µM) | 0.031 (≈ 0.0796 µM) | 487 ± 101 | 131 ± 22 | – | –
Cc1c(CN(C)C(=O)/C=C/c2cnc3c(c2)CC[C@H](N)C(=O)N3)oc2ccccc12 [fabimycin] | 4 (≈ 9.89 µM) | 4 (≈ 9.89 µM) | 2 (≈ 4.94 µM) | 4 (≈ 9.89 µM) | 4 (≈ 9.89 µM) | 1 (≈ 2.47 µM) | 4 (≈ 9.89 µM) | 2 (≈ 4.94 µM) | 0.004 (≈ 0.00989 µM) | 4 (≈ 9.89 µM) | 4 (≈ 9.89 µM) | 2 (≈ 4.94 µM) | – | 17 ± 3 | 8 ± 2 | 0.016 (≈ 0.0396 µM) | 4.75

Reference: publication PMC9413440, “An Iterative Approach Guides Discovery of the FabI Inhibitor Fabimycin, a Late-Stage Antibiotic Candidate with In Vivo Efficacy against Drug-Resistant Gram-Negative Infections” (ACS Central Science, 2022)
